The source made the active and inactive calls. The rule behind the calls is not given here. Where a SMILES comes first, the peptide text is derived from it. Bridges are numbered along the chain shown (N, C = ends). Roman numbers before positions name the chains, in order. [ ]: non-standard residue; d: D form. 1Nal = N[C@@H](Cc1cccc2ccccc12)C(=O)O; 2Nal = N[C@@H](Cc1ccc2ccccc2c1)C(=O)O; Agb = N=C(N)NCC[C@H](N)C(=O)O
Tests used:
[1] = target: T1, Relaxin-3 receptor 2 (Homo sapiens, UniProt Q8TDU9); experiment: Agonist activity at RXFP4 (unknown origin) expressed in CHO cells co-transfected with pCRE-galactosidase reporter plasmid assessed as inhibition of forskolin-induced cAMP accumulation incubated for 6 hrs by reporter gene assay; assay type: functional, cell-based
T1 sequence (Q8TDU9 whole entry): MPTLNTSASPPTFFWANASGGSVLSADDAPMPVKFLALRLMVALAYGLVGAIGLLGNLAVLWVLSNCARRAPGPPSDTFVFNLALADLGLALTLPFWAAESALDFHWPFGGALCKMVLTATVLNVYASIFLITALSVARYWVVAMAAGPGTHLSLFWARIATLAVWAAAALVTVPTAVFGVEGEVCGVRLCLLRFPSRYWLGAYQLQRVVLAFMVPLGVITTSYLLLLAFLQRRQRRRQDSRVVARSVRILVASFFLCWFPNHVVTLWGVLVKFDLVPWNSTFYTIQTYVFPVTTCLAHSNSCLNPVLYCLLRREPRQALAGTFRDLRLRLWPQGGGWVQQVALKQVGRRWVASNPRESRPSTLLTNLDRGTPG

[2] = target: T2, Relaxin-3 receptor 1 (Homo sapiens, UniProt Q9NSD7); experiment: (§1) Agonist activity at RXFP3 (unknown origin) expressed in CHO cells co-transfected with pCRE-galactosidase reporter plasmid assessed as inhibition of forskolin-induced cAMP accumulation incubated for 6 hrs by reporter gene assay; assay type: functional, cell-based
T2 sequence (Q9NSD7 whole entry): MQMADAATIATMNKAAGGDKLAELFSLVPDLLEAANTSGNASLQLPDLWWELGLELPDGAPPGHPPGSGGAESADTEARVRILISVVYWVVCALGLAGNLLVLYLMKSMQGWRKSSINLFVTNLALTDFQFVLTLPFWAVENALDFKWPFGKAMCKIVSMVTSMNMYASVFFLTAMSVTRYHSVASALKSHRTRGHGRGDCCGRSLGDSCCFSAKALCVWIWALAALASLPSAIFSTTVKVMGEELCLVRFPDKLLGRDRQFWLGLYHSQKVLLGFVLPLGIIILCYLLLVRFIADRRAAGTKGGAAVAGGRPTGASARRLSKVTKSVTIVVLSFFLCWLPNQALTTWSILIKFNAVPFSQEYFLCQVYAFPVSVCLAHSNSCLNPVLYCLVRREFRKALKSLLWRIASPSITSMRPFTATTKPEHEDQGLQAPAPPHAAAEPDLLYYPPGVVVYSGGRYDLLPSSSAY

[3] = target: T1, Relaxin-3 receptor 2; experiment: Binding affinity to LgBiT-tagged RXFP4 (unknown origin) expressed in HEK cells assessed as inhibition constant incubated for 1 hr by NanoBiT assay; assay type: cell-based
[4] = target: T2, Relaxin-3 receptor 1; experiment: Binding affinity to SmBit-tagged RXFP3 (unknown origin) expressed in HEK cells assessed as inhibition constant incubated for 1 hr by NanoBiT assay; assay type: cell-based; conditions: read-out: Ki
[5] = Selectivity index, ratio of Ki for binding affinity to SmBit-tagged RXFP3 (unknown origin) expressed in HEK cells assessed as inhibition constant to Ki for binding affinity to LgBiT-tagged RXFP4 (unknown origin) expressed in HEK cells assessed as inhibition constant; assay type: cell-based
[6] = target: T1, Relaxin-3 receptor 2; experiment: Agonist activity at RXFP4 in HEK293T cells assessed as beta-arrestin2 recruitment pretreated with coelenterazine for 10 mins followed by compound addition by BRET assay; assay type: functional, cell-based
[7] = target: T3, Relaxin-3 receptor 1 (Homo sapiens) (UniProt Q9NSD7); experiment: as §1; assay type: functional, cell-based
T3 sequence (whole entry): T2 sequence (Q9NSD7 whole entry)

Row | Structure (SMILES) | EC50 ([1]; read-out: EC50) | EC50 ([2]; read-out: EC50) | Ki [3] | Ki [4] | EC50 ([2]; cho, read-out: EC50) | EC50 ([2]; read-out: pEC50 (converted)) | EC50 [6] | Activity [1] | EC50 ([1]; read-out: pEC50 (converted)) | Activity [6] | Activity [7] | Ratio Ki [5]
1 | CC[C@H](C)[C@@H]1NC(=O)[C@H](Cc2ccc(O)cc2)NC(=O)[C@H]([C@@H](C)CC)NC(=O)[C@H](C(C)C)NC(=O)[C@H]([C@@H](C)O)NC(=O)[C@H](CCCNC(=N)N)NC(=O)[C@H]([C@@H](C)CC)NC(=O)[C@H](Cc2ccc(O)cc2)NC(=O)[C@H](CCC(=O)O)NC(=O)[C@H](CC(C)C)NC(=O)CNC(=O)[C@@H](N)CSSC[C@H](N)C(=O)N[C@@H]([C@@H](C)O)C(=O)N[C@@H](CC(=O)O)C(=O)NCC(=O)N[C@@H](CS)C(=O)N[C@H](CO)C(=O)N[C@@H](CCSC)C(=O)N[C@@H](CCCCN)C(=O)N[C@@H](CC(=O)O)C(=O)N[C@@H](CC(C)C)C(=O)N[C@@H](CO)C(=O)N[C@@H](C)C(=O)N[C@@H](CC(C)C)C(=O)N[C@H](C(=O)O)CSSC[C@@H](C(=O)NCC(=O)N[C@@H](C)C(=O)N[C@@H](CO)C(=O)N[C@@H](CCCNC(=N)N)C(=O)N[C@@H](Cc2c[nH]c3ccccc23)C(=O)O)NC1=O | 0.00166 µM | 0.155 µM | 0.00468 µM | 0.0759 µM |  |  |  |  |  |  |  | 16.2
2 | CC[C@H](C)[C@@H]1NC(=O)[C@H](Cc2ccc(O)cc2)NC(=O)[C@H]([C@@H](C)CC)NC(=O)[C@H](C(C)C)NC(=O)[C@H]([C@@H](C)O)NC(=O)[C@H](CCCNC(=N)N)NC(=O)[C@H]([C@@H](C)CC)NC(=O)[C@H](Cc2ccc(O)cc2)NC(=O)[C@H](CCC(=O)O)NC(=O)[C@H](CC(C)C)NC(=O)CNC(=O)[C@@H](N)CSSC[C@H](N)C(=O)N[C@@H]([C@@H](C)O)C(=O)N[C@@H](CC(=O)O)C(=O)NCC(=O)N[C@@H](CS)C(=O)N[C@H](CO)C(=O)N[C@@H](CCSC)C(=O)N[C@@H](CCCCN)C(=O)N[C@@H](CC(=O)O)C(=O)N[C@@H](CC(C)C)C(=O)N[C@@H](CO)C(=O)N[C@@H](C)C(=O)N[C@@H](CC(C)C)C(=O)N[C@H](C(=O)O)CSSC[C@@H](C(=O)NCC(=O)N[C@@H](CO)C(=O)N[C@@H](CO)C(=O)N[C@@H](CCCNC(=N)N)C(=O)N[C@@H](Cc2c[nH]c3ccccc23)C(=O)O)NC1=O | 0.00776 µM |  | 0.0182 µM | 0.427 µM | > 10 µM | > 10 µM |  |  |  |  |  | 23.4
3 | CC[C@H](C)[C@@H]1NC(=O)[C@H](Cc2ccc(O)cc2)NC(=O)[C@H]([C@@H](C)CC)NC(=O)[C@H](C(C)C)NC(=O)[C@H]([C@@H](C)O)NC(=O)[C@H](CCCNC(=N)N)NC(=O)[C@H]([C@@H](C)CC)NC(=O)[C@H](Cc2ccc(O)cc2)NC(=O)[C@H](CCC(=O)O)NC(=O)[C@H](CC(C)C)NC(=O)CNC(=O)[C@@H](N)CSSC[C@H](N)C(=O)N[C@@H]([C@@H](C)O)C(=O)N[C@@H](CC(=O)O)C(=O)NCC(=O)N[C@@H](CS)C(=O)N[C@H](CO)C(=O)N[C@@H](CCSC)C(=O)N[C@@H](CCCCN)C(=O)N[C@@H](CC(=O)O)C(=O)N[C@@H](CC(C)C)C(=O)N[C@@H](CO)C(=O)N[C@@H](C)C(=O)N[C@@H](CC(C)C)C(=O)N[C@H](C(=O)O)CSSC[C@@H](C(=O)NCC(=O)NCC(=O)N[C@@H](CO)C(=O)N[C@@H](CCCNC(=N)N)C(=O)N[C@@H](Cc2c[nH]c3ccccc23)C(=O)O)NC1=O | 0.00117 µM | 4.79 µM | 0.00229 µM | 0.603 µM |  |  | 0.0224 µM |  |  |  |  | 263
4 | CC[C@H](C)[C@@H]1NC(=O)[C@H](Cc2ccc(O)cc2)NC(=O)[C@H]([C@@H](C)CC)NC(=O)[C@H](C(C)C)NC(=O)[C@H]([C@@H](C)O)NC(=O)[C@H](CCCNC(=N)N)NC(=O)[C@H]([C@@H](C)CC)NC(=O)[C@H](Cc2ccc(O)cc2)NC(=O)[C@H](CCC(=O)O)NC(=O)[C@H](CC(C)C)NC(=O)CNC(=O)[C@@H](N)CSSC[C@H](N)C(=O)N[C@@H]([C@@H](C)O)C(=O)N[C@@H](CC(=O)O)C(=O)NCC(=O)N[C@@H](C)C(=O)N[C@@H](CO)C(=O)N[C@@H](CCSC)C(=O)N[C@@H](CCCCN)C(=O)N[C@@H](CC(=O)O)C(=O)N[C@@H](CC(C)C)C(=O)N[C@@H](CO)C(=O)N[C@@H](C)C(=O)N[C@@H](CC(C)C)C(=O)N[C@H](C(=O)O)CSSC[C@@H](C(=O)N[C@@H](C)C(=O)N[C@@H](CO)C(=O)N[C@@H](CO)C(=O)N[C@@H](CCNC(=N)N)C(=O)N[C@@H](Cc2cccc3ccccc23)C(=O)O)NC1=O (I: H-CGLEYIRTVIYICASS[Agb][1Nal]-OH / II: H-CTDGASMKDLSALC-OH; disulfide I:1-II:1, I:13-II:14) | 0.00912 µM |  | 0.00309 µM |  |  |  |  | inactive |  |  |  | 
5 | CC[C@H](C)[C@@H]1NC(=O)[C@H](Cc2ccc(O)cc2)NC(=O)[C@H]([C@@H](C)CC)NC(=O)[C@H](C(C)C)NC(=O)[C@H]([C@@H](C)O)NC(=O)[C@H](CCCNC(=N)N)NC(=O)[C@H]([C@@H](C)CC)NC(=O)[C@H](Cc2ccc(O)cc2)NC(=O)[C@H](CCC(=O)O)NC(=O)[C@H](CC(C)C)NC(=O)CNC(=O)[C@@H](NC(=O)[C@H](CC(C)C)NC(=O)[C@H](CCCNC(=N)N)NC(=O)[C@@H](NC(=O)[C@H](CO)NC(=O)[C@H](CCC(=O)O)NC(=O)[C@@H](N)CCCCN)C(C)C)CSSC[C@H](N)C(=O)N[C@@H]([C@@H](C)O)C(=O)N[C@@H](CC(=O)O)C(=O)NCC(=O)N[C@@H](C)C(=O)N[C@@H](CO)C(=O)N[C@@H](CCSC)C(=O)N[C@@H](CCCCN)C(=O)N[C@@H](CC(=O)O)C(=O)N[C@@H](CC(C)C)C(=O)N[C@@H](CO)C(=O)N[C@@H](C)C(=O)N[C@@H](CC(C)C)C(=O)N[C@H](C(=O)O)CSSC[C@@H](C(=O)N[C@@H](C)C(=O)N[C@@H](CO)C(=O)N[C@@H](CO)C(=O)N[C@@H](CCNC(=N)N)C(=O)N[C@@H](Cc2c[nH]c3ccccc23)C(=O)O)NC1=O (I: H-KESVRLCGLEYIRTVIYICASS[Agb]W-OH / II: H-CTDGASMKDLSALC-OH; disulfide I:7-II:1, I:19-II:14) | > 100 µM |  | 0.0141 µM |  |  |  |  |  | > 10 µM |  |  | 

Second part, led by results:

Row | EC50 ([1]; read-out: EC50) | EC50 ([2]; read-out: EC50) | Ki [3] | Ki [4] | EC50 ([2]; cho, read-out: EC50) | EC50 ([2]; read-out: pEC50 (converted)) | EC50 [6] | Activity [1] | EC50 ([1]; read-out: pEC50 (converted)) | Activity [6] | Activity [7] | Structure (SMILES) | Ratio Ki [5]
6 | > 100 µM |  | 0.00347 µM |  |  |  |  |  | > 10 µM | inactive |  | CC[C@H](C)[C@@H]1NC(=O)[C@H](Cc2ccc(O)cc2)NC(=O)[C@H]([C@@H](C)CC)NC(=O)[C@H](C(C)C)NC(=O)[C@H]([C@@H](C)O)NC(=O)[C@H](CCCNC(=N)N)NC(=O)[C@H]([C@@H](C)CC)NC(=O)[C@H](Cc2ccc(O)cc2)NC(=O)[C@H](CCC(=O)O)NC(=O)[C@H](CC(C)C)NC(=O)CNC(=O)[C@@H](NC(=O)[C@H](CC(C)C)NC(=O)[C@H](CCCNC(=N)N)NC(=O)[C@@H](NC(=O)[C@H](CO)NC(=O)[C@H](CCC(=O)O)NC(=O)[C@@H](N)CCCCN)C(C)C)CSSC[C@H](N)C(=O)N[C@@H]([C@@H](C)O)C(=O)N[C@@H](CC(=O)O)C(=O)NCC(=O)N[C@@H](C)C(=O)N[C@@H](CO)C(=O)N[C@@H](CCSC)C(=O)N[C@@H](CCCCN)C(=O)N[C@@H](CC(=O)O)C(=O)N[C@@H](CC(C)C)C(=O)N[C@@H](CO)C(=O)N[C@@H](C)C(=O)N[C@@H](CC(C)C)C(=O)N[C@H](C(=O)O)CSSC[C@@H](C(=O)N[C@@H](C)C(=O)N[C@@H](CO)C(=O)N[C@@H](CO)C(=O)N[C@@H](CCNC(=N)N)C(=O)N[C@@H](Cc2ccc3ccccc3c2)C(=O)O)NC1=O (I: H-KESVRLCGLEYIRTVIYICASS[Agb][2Nal]-OH / II: H-CTDGASMKDLSALC-OH; disulfide I:7-II:1, I:19-II:14) | 
7 | 0.0178 µM |  | 0.0112 µM | 0.589 µM |  |  |  |  |  |  | inactive | CC[C@H](C)[C@@H]1NC(=O)[C@H](Cc2ccc(O)cc2)NC(=O)[C@H]([C@@H](C)CC)NC(=O)[C@H](C(C)C)NC(=O)[C@H]([C@@H](C)O)NC(=O)[C@H](CCCNC(=N)N)NC(=O)[C@H]([C@@H](C)CC)NC(=O)[C@H](Cc2ccc(O)cc2)NC(=O)[C@H](CCC(=O)O)NC(=O)[C@H](CC(C)C)NC(=O)CNC(=O)[C@@H](N)CSSC[C@H](N)C(=O)N[C@@H]([C@@H](C)O)C(=O)N[C@@H](CC(=O)O)C(=O)NCC(=O)N[C@@H](CS)C(=O)N[C@H](CO)C(=O)N[C@@H](CCSC)C(=O)N[C@@H](CCCCN)C(=O)N[C@@H](CC(=O)O)C(=O)N[C@@H](CC(C)C)C(=O)N[C@@H](CO)C(=O)N[C@@H](C)C(=O)N[C@@H](CC(C)C)C(=O)N[C@H](C(=O)O)CSSC[C@@H](C(=O)N[C@@H](C)C(=O)NCC(=O)N[C@@H](CO)C(=O)N[C@@H](CCCNC(=N)N)C(=O)N[C@@H](Cc2c[nH]c3ccccc23)C(=O)O)NC1=O | 52.5
